Assays:
HUVECs = assay: In vitro tubule formation on matrigel; format: cell-based, human; conditions: 50 nM, 6 h
Description: FIG. 10 depicts the effect of compound 4 on in vitro tubule formation. HUVECs (1.5×10^6 cells/well) were grown on matrigel-coated 6-well plates for 6 h in the presence of vehicle (0.5% (v/v) ethanol) or 50 nM compound 4. […] The pictures shown in FIG. 10 are representative of three independent experiments. HUVECs seeded onto Matrigel in the presence of vehicle (0.5% (v/v) ethanol) underwent alignment into the capillary-like structures.

p-glycoprotein = target: T1, p-glycoprotein (Homo sapiens, UniProt P08183); assay: Anti-proliferative effects in multi-drug resistant cells, conclusion on efflux; format: cell-based; conditions: concluded from resistance factors
T1 construct: HL-60-MDR (overexpress p-glycoprotein); endogenous in cells; host or cells: HL-60-MDR, A2780-ADR
Description: (§1) Three drug resistant cell lines and respective parental cell lines were assessed. […] Western blot analysis confirmed the overexpression of p-glycoprotein and BCRP in respective cell lines.
(§2) Cells were exposed to multiple concentrations of the indicated compound for 72 h. Cell viability was assessed using the Alamar blue assay and respective IC50 values were calculated. The resistance factor (RF) was calculated by dividing the IC50 of the resistant cell line/IC50 of the parental cell line.

A2780-parental = assay: Alamar Blue cell viability assay; format: cell-based; conditions: 72 h
Description: as §2
A2780-parental and A2780-ADR resistant cells were provided by the Beatson Institute of Cancer Research, Glasgow. […] All cells were cultured in RPMI-1640 Glutamax medium supplemented with 10% FCS media, 100 units/ml penicillin and 100 μg/mIstreptomycin. Cells were maintained at 37° C. in 5% CO2 in a humidified incubator.
(§3) The reduction of Alamar Blue is proportional to the number of viable cells. Cells (200 μl) were plated in triplicate in a 96-well plates (K562, 100,000/ml; HL-60, 300,000/ml; A-2780 50,000/ml). A-2780 cells were plated 24 h prior to treatment. Suspension cells were plated in the log phase of growth and treated immediately. The cells were then treated with either medium alone, vehicle (1% ethanol v/v or 0.1% DMSO v/v) or with a range of concentrations of drug [0.001-10 μM]. After 72 h, Alamar Blue was added to each well (10% of final volume) and fluorescence was read using a 96-well fluorometer with excitation at 530 nm and emission of 590 nm. The blank solution consisted of medium and Alamar Blue and the blank solution was used to calibrate the spectrophotometer to zero absorbance. The relative cell viability (%) related to control wells and was calculated by [A]test/[A]control×100 where [A]test is the absorbance of the drug treated cells and [A]control the absorbance of the vehicle control treated cells. Dose response curves were plotted and IC50 values (concentration of drug resulting in 50% reduction in cell survival) were obtained using the commercial software package Prism (GraphPad Software, Inc., La Jolla, USA). Experiments were performed in triplicate on at least three separate occasions.

[1] = system: primary endothelial cell (HUVEC); assay: Endothelial cell proliferation, AlamarBlue; format: cell-based; conditions: Homo sapiens, 72 h, read-out: IC50, proliferation of HUVECs
Description: A range of concentrations of cis β-lactam 4, were tested on primary endothelial cell (HUVEC) proliferation. HUVEC cells (20,000 cells/well) were seeded onto 96-well plates for 24 h and treated in triplicate with vehicle alone (1% (v/v) ethanol) or a range of concentrations of compound 4 for 72 h. The cells were then incubated in 10% (v/v) AlamarBlue and its reduction to a fluorescent state measured at excitation 544 nm and emission 590 nm using a multi-well fluorimeter. The results were expressed as the percentage cell proliferation relative to vehicle-treated control cells (100%). Values represent the mean±the S.E.M for three separate experiments. IC50 values were obtained using Prism GraphPad 4.
Pooled primary human umbilical vein endothelial cells (HUVECs) and their associated reagents were all obtained from Cascade Biologics, Invitrogen, Carlsbad, Calif., USA. HUVECs were maintained between passages 1-4 in Medium 200 supplemented with LSGS (low serum growth factor supplement) and utilised for experiments at passage 4.

HL-60-MDR(PGP) = assay: Alamar Blue cell viability assay; format: cell-based, human
Description: as §1, §2
(§4) All cells were cultured in RPMI-1640 Glutamax medium supplemented with 10% FCS media, 100 units/ml penicillin and 100 μg/mIstreptomycin. Cells were maintained at 37° C. in 5% CO2 in a humidified incubator.
as §3

A2780-ADR (PGP) = assay: Alamar Blue cell viability assay
Description: as §1, §2, §4, §3

HL-60-BCRP = assay: Alamar Blue cell viability assay
Description: as §1, §2, §4, §3

SNB-75 = assay: NCI60 cell line screen; format: cell-based; conditions: Homo sapiens, CNS
[2] = system: primary CML cells (BCR-ABL-positive); assay: Apoptosis in ex vivo CML cells, annexin V staining; format: cell-based, human; conditions: 72 h
From the text: This study is the first pre-clinical evaluation of combretastatins in the treatment of chemotherapy naive and patients with acquired imatinib mesylate resistance (refractory or relapsed disease despite adequate dose and duration). Imatinib mesylate is the first line treatment in BCR-ABL-positive CML chemotherapy. BCR-ABL, a constitutively active protein tyrosine kinase is a product of the Philadelphia chromosome (Ph) translocation t(9;22) and plays a central role in the pathogenesis of CML. […] All cells were treated with a clinically achievable concentration of imatinib mesylate (indicated as STI in FIG. 3) [250 nM]. […] The percentage apoptosis was determined by flow cytometric analysis of annexin-V stained cells.
The percentage of apoptosis in ex-vivo CML cells was determined by annexin V staining. […] Cells were collected by centrifugation at 400×g for 5 min and resuspended in anti-CD-45 diluted 1:50 in RPMI medium. Following a 10 min incubation in the dark at room temperature, cells were centrifuged and washed in Annexin binding buffer (Biosource, Nivelles, Belgium). Cells were again centrifuged and resuspended in Annexin-V-FITC (IQ products, Netherlands) diluted in Annexin binding buffer (1:50). Samples were next incubated in the dark on ice for 15 min. Annexin binding buffer (1 ml) was added to each sample. Samples were collected by centrifugation and resuspended in 0.5 ml of Annexin binding buffer. Cells were read immediately by flow cytometry and analysed by Cellquest software. CML cells were selected and gated based on their low to medium side scatter and low CD45 expression.

[3] = system: microtubule network of endothelial cells (HUVECs); assay: Microtubule network immunofluorescence; format: cell-based, human; conditions: 50 nM, 16 h
Description: FIG. 9 illustrates the effect of compound 4 in destabilising the microtubule network of endothelial cells. HUVECs (0.6×10^5 cell/chamber), grown on 4-chamber glass slides for 24 h were treated with vehicle (0.5% (v/v) ethanol) or 50 nM compound 4 for 16 h. The cells were then fixed in 100% methanol at −20° C., incubated with a monoclonal anti-α-tubulin antibody (Merck Biosciences, Nottingham, UK), followed by a FITC-conjugated anti-mouse antibody (DakoCytomation, Glostrup, Denmark) and then briefly stained with propidium iodide. The chamber partitions were removed from the slides and anti-quenching solution (2 mg/ml p-phenylenediamine in 50:50 glycerol to PBS solution) was applied to the surface of each slide and coverslips mounted. The organisation of the microtubule network and the cellular DNA was visualised using an Olympus IX81 Fluorescent Microscope (Olympus Corporation, Tokyo, Japan) at a magnification of 600×. The photographs illustrated in FIG. 9 are representative of three independent experiments.

MOLT-4 = assay: NCI60 cell line screen; conditions: Homo sapiens

T1 sequence (P08183 whole entry): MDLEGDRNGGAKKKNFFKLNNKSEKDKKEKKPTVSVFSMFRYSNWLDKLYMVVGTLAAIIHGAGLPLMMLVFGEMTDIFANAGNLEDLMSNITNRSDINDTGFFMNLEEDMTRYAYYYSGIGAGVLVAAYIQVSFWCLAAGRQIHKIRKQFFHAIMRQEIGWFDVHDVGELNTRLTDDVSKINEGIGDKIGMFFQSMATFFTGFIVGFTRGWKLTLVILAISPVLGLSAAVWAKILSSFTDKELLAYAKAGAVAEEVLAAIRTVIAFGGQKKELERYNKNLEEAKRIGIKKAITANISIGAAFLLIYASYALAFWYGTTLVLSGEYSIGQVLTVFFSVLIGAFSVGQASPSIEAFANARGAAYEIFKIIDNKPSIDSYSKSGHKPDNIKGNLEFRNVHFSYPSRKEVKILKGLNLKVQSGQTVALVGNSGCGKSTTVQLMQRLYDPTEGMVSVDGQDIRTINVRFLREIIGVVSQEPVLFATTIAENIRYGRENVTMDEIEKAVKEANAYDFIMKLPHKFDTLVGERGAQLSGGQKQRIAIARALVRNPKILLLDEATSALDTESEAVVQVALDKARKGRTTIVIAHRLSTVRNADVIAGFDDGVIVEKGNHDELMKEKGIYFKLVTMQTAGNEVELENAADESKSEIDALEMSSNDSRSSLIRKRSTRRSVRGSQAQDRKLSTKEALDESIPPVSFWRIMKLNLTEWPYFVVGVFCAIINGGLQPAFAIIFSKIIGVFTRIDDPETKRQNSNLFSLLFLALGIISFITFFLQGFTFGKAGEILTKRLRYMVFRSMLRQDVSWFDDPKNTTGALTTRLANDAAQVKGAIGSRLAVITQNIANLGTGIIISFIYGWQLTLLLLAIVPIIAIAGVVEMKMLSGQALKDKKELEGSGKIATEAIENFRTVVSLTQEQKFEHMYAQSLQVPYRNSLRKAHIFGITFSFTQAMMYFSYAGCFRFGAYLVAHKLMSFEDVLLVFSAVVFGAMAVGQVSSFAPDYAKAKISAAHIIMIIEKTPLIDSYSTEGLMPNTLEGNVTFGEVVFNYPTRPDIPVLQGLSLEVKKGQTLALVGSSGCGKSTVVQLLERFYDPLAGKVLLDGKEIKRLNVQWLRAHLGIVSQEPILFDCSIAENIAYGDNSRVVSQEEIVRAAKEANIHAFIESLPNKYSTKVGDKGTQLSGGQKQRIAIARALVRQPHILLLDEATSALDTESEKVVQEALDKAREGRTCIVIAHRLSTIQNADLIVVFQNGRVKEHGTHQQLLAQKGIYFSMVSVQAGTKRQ

Compound	in vitro tubule formation (HUVECs)	substrate for the p-glycoprotein (p-glycoprotein)	IC50 (A2780-parental)	IC50 [1]	IC50 (HL-60-MDR(PGP); Homo sapiens, HL60/MDR, HL-60-MDR(PGP), 72 h, Alamar blue, read-out: IC50)	RF (HL-60-MDR(PGP); IC50 HL-60-MDR(PGP) / IC50 HL-60 parental)	IC50 (A2780-ADR (PGP); A2780 ADR, 72 h)	RF (A2780-ADR (PGP); IC50 A2780-ADR (PGP) / IC50 A2780-parental)	IC50 (HL-60-BCRP; Homo sapiens, 72 h)	RF (HL-60-BCRP; IC50 HL-60-BCRP / IC50 HL-60 parental)	GI50 (SNB-75)	apoptosis induction compared with imatinib mesylate ([2]; 250 nM each, patient samples)	apoptosis in primary CML cells ([2]; 250 nM, chemotherapy naïve (4 samples) and imatinib mesylate resistant (2 samples))	effect on tubulin cytoskeleton [3]	GI50 (MOLT-4)
COc1ccc(C2C(c3ccccc3)C(=O)N2c2cc(OC)c(OC)c(OC)c2)cc1O (stereo not drawn) [Compound 4, 4-(3-Hydroxy-4-methoxyphenyl)-3-phenyl-1-(3,4,5-trimethoxyphenyl)-azetidin-2-one]	prevented spontaneous in vitro tubule formation	poor substrates for the p-glycoprotein	0.0233 µM	0.004 µM	0.0182 µM	1.03	0.0104 µM	0.5	0.0253 µM	1.4	0.047 µM	more effective inducers of apoptosis than imatinib mesylate	induced apoptosis	gross morphological changes in their tubulin cytoskeleton typical of depolymerising agents	–
COc1ccc(C2C(c3ccccc3)C(=O)N2c2cc(OC)c(OC)c(OC)c2)cc1 (stereo not drawn) [Compound 8, 4-(4-Methoxy-phenyl)-3-phenyl-1-(3,4,5-trimethoxy-phenyl)-azetidin-2-one]	–	–	–	–	–	–	–	–	–	–	–	–	–	–	0.0316 µM
